The text below walks through data of publication PMC2892883 (Behavioural brain research, 2010).

The experiment has as its target mGluR8b (Homo sapiens, UniProt O00222). Briefly: […]GTPγS binding, inhibition of the potentiation by AZ12216052. The format is cell-based.

Each structure is given as a SMILES string.

mGluR8b, sequence (O00222 34-908 isoform O00222-2): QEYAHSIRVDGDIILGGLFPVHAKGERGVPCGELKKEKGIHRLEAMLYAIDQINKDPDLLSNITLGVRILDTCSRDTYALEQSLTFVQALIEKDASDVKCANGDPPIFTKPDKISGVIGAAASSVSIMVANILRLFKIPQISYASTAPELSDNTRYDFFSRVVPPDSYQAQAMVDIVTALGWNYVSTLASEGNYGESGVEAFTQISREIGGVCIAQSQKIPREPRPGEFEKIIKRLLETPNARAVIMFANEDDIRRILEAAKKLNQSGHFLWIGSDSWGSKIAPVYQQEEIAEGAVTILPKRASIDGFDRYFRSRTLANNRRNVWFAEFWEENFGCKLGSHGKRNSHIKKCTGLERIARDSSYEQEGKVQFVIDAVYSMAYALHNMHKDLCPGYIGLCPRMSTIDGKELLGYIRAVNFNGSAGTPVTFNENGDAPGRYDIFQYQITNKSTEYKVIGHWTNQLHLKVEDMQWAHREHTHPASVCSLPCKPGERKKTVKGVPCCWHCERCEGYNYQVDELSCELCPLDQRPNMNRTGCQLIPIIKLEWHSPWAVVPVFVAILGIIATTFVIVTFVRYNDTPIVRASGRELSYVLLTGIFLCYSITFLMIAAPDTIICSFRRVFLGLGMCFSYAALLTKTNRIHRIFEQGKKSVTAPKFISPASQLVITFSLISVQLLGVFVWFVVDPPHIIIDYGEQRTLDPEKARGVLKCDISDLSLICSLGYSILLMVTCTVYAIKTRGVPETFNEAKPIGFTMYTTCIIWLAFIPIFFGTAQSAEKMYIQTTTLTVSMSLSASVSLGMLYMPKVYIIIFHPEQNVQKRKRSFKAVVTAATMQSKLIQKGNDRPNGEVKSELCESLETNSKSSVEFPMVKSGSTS

On to `NC(C(=O)O)(c1ccc(P(=O)(O)O)cc1)C1CC1` (racemic) [CPPG], for which the “[35S]GTPγS binding, inhibition of the potentiation by AZ12216052” value is “The potentiator effect of AZ12216052 on mGluR8 is inhibited by group-II/III antagonists LY341495 and CPPG”.
